Entries after “also recorded” stand apart in the source; their conditions may differ.

In assay [1] the test system is renin expression in JGA. Kind of assay: JGA renin expression by semiquantitative RT-PCR of total kidney RNA. The following applies: overnight. The class given is in vivo, C57BL6 mice. As to the method:
(§1) 3. Animal experiments and measurements. C57BL6 mice were used following IRB approved protocols. Twenty-four hours prior to dietary sodium manipulations, all animals were fasted with free access to water, supplemented with 2% glucose and 0.1% KCl. Either one mg/kg amiloride and 2 mg/kg furosemide (52) or control carrier were applied by subcutaneous injection. Low sodium (0.3% sodium) and high sodium (6%) diets were purchased from Purina Mills (Purina Mills Inc., St. Louis, Mo.). Blood was collected by cardiac puncture. Spot urine was collected by bladder puncture. Hemidissected kidneys were formalin-fixed or snap-frozen in liquid nitrogen. For urine collection, mice were placed in metabolic cages (Nalgene, Nalge Nunc International, Rochester, N.Y.). Urine specimens were collected at 12 h intervals in tubes containing AEBSF and 8-hydroxyquinoline (NEN-DuPont, Boston, Mass.). Weight and urine volumes were recorded daily. Urinary Ang and A-I measurements were corrected for creatinine or expressed as total urinary Ang. […]
On the basis of immunostaining and expression studies, we conclude that, in addition to its major site of expression in JGA, renin is also expressed in connecting tubule. […] Renin expression in CNT cells was assessed by quantitative histology (frequency of CNT cells staining for renin). […] Manipulation of dietary sodium was monitored by measuring total sodium excretion. […]

Assay [2] relates to renin expression in CNT cells. As to the kind of experiment: Renin expression in CNT cells by quantitative histology (renin immunostaining) after sodium diet and diuretics. The class given is in vivo, C57BL6 mice. As to the method: as §1, with “Ang. RNA isolation and RT-PCR were performed following standard protocols (QIAGEN, Valencia, Calif.).” for “Ang.”
5. […] The biotinylated secondary antibody was detected using streptavidin conjugated with horseradish peroxidase or alkaline phosphatase and visualized with either 3-amino-9-ethyl-carbazole (AEC; Sigma) or NBT/BCIP, respectively. […]
6. Quantitative histology. Renin expression in renal tubular cells as a function of sodium diet, or diuretics, was assayed by quantitating the frequency of renin immunostaining in segments of the distal nephron using the peroxidase reporter enzyme and AEC chromogen. Two independent blinded investigators scored sagittal kidney for renin using a subjective 0-4 scale: 0 equaled no tubular renin staining; 1 equaled at least one positive cell per tubule segment; 2 equaled between 25-50% of cells per of tubule segment; 3 equaled more than 50% of cells per tubule segment stained for renin; 4 equaled >75%. […] Results were analyzed by comparing the mean±S.E.M. between groups using unpaired t-tests. p<0.05 was considered significant. […]

Take `N=C(N)NC(=O)c1nc(Cl)c(N)nc1N` [amiloride]: the JGA renin entry in assay [1] (high sodium diet plus amiloride (one mg/kg, subcutaneous), p<0.05) is on record as “significantly decreased”. The “renin expression in distal nephron” value in assay [2] (blocking the sodium channel of principal cells (summary statement)) is recorded as “up-regulation”. Further, in assay [2] (high sodium diet plus amiloride (one mg/kg, subcutaneous), overnight, vs high sodium alone), the CNT immunoreactive renin entry is reported as “increased; also recorded: marked increase”.

`NS(=O)(=O)c1cc(C(=O)O)c(NCc2ccco2)cc1Cl` [furosemide]: the JGA renin result in assay [1] (sodium restriction plus furosemide (2 mg/kg, subcutaneous), vs sodium restriction alone) is recorded as “without additional effects”. The “renin expression in CNT” value in assay [2] (sodium restriction plus furosemide (2 mg/kg, subcutaneous), overnight, vs sodium restriction alone) is recorded as “decreased”.

Values taken from US7749725B2, “Drug screening and diagnosis based on paracrine tubular renin-angiotensin system” (University of Utah Research Foundation, priority 1998, dated 2010).
